The first test concerns GM1 production in Jurkat cells. As to the kind of experiment: cells. It is filed as cell-based. The conditions noted are these: Homo sapiens, Jurkat, 72 h.
In the case of `CC(C)COc1cccc(-c2cc3c(cc2F)C(NC(=O)O[C@@H]2CN4CCC2CC4)C(C)(C)C3)c1` (stereo partly drawn) [Example 380, (S)-quinuclidin-3-yl (6-fluoro-5-(3-isobutoxyphenyl)-2,2-dimethyl-2,3-dihydro-1H-inden-1-yl)carbamate], the IC50 – broadly, the concentration at which inhibition is half-maximal – turned out to be 36.5 nM. In turn, `COc1ccc(-c2cc3c(cc2F)C(NC(=O)O[C@@H]2CN4CCC2CC4)C(C)(C)C3)c(OC)c1` (stereo partly drawn) [Example 381, (S)-quinuclidin-3-yl (5-(2,4-dimethoxyphenyl)-6-fluoro-2,2-dimethyl-2,3-dihydro-1H-inden-1-yl)carbamate] displayed an IC50 of 59.9 nM. On the same count and under the same terms, next, `COc1ccc(OC)c(-c2cc3c(cc2F)C(NC(=O)O[C@@H]2CN4CCC2CC4)C(C)(C)C3)c1` (stereo partly drawn) [Example 382, (S)-quinuclidin-3-yl (5-(2,5-dimethoxyphenyl)-6-fluoro-2,2-dimethyl-2,3-dihydro-1H-inden-1-yl)carbamate]: 31.3 nM; `COc1cccc(OC)c1-c1cc2c(cc1F)C(NC(=O)O[C@@H]1CN3CCC1CC3)C(C)(C)C2` (stereo partly drawn) [Example 383, (S)-quinuclidin-3-yl (5-(2,6-dimethoxyphenyl)-6-fluoro-2,2-dimethyl-2,3-dihydro-1H-inden-1-yl)carbamate]: 123 nM.

Regarding `COc1cc(OC)cc(-c2cc3c(cc2F)C(NC(=O)O[C@@H]2CN4CCC2CC4)C(C)(C)C3)c1` (stereo partly drawn) [Example 384, (S)-quinuclidin-3-yl (5-(3,5-dimethoxyphenyl)-6-fluoro-2,2-dimethyl-2,3-dihydro-1H-inden-1-yl)carbamate], the IC50 was 83.2 nM.

On to `COc1ccc(-c2cc3c(cc2F)C(NC(=O)O[C@@H]2CN4CCC2CC4)C(C)(C)C3)cc1OC` (stereo partly drawn) [Example 385, (S)-quinuclidin-3-yl (5-(3,4-dimethoxyphenyl)-6-fluoro-2,2-dimethyl-2,3-dihydro-1H-inden-1-yl)carbamate], for which 332 nM corresponded to half-maximal inhibition (IC50). Consider `COc1ccc(-c2cc3c(cc2F)C(NC(=O)O[C@@H]2CN4CCC2CC4)C(C)(C)C3)c(Cl)c1` (stereo partly drawn) [Example 386, (S)-quinuclidin-3-yl (5-(2-chloro-4-methoxyphenyl)-6-fluoro-2,2-dimethyl-2,3-dihydro-1H-inden-1-yl)carbamate], for which the IC50 was found to be 29.5 nM. Same read-out and setting: next, `CCOc1ccc(-c2cc3c(cc2F)C(NC(=O)O[C@@H]2CN4CCC2CC4)C(C)(C)C3)cc1F` (stereo partly drawn) [Example 387, (S)-quinuclidin-3-yl (5-(4-ethoxy-3-fluorophenyl)-6-fluoro-2,2-dimethyl-2,3-dihydro-1H-inden-1-yl)carbamate]: 48.2 nM; `Cc1cc(-c2cc3c(cc2F)C(NC(=O)O[C@@H]2CN4CCC2CC4)C(C)(C)C3)cc(C)c1OC(C)C` (stereo partly drawn) [Example 388, (S)-quinuclidin-3-yl (6-fluoro-5-(4-isopropoxy-3,5-dimethylphenyl)-2,2-dimethyl-2,3-dihydro-1H-inden-1-yl)carbamate]: 93.1 nM; `O=C(NC1c2ccc(-c3ccc(F)cc3)cc2CC12CC2)O[C@@H]1CN2CCC1CC2` (stereo partly drawn) [Example 389, (S)-quinuclidin-3-yl (5′-(4-fluorophenyl)-1′,3′-dihydrospiro[cyclopropane-1,2′-inden]-1′-yl)carbamate]: 76.5 nM.

For the compound `O=C(NC1c2ccc(-c3ccc(Cl)cc3)cc2CC12CC2)O[C@@H]1CN2CCC1CC2` (stereo partly drawn) [Example 390, (S)-quinuclidin-3-yl (5′-(4-chlorophenyl)-1′,3′-dihydrospiro[cyclopropane-1,2′-inden]-1′-yl)carbamate], inhibition was half-maximal at 44.1 nM (IC50).

For the compound `O=C(NC1c2ccc(-c3ccc(C(F)(F)F)cc3)cc2CC12CC2)O[C@@H]1CN2CCC1CC2` (stereo partly drawn) [Example 391, (S)-quinuclidin-3-yl (5′-(4-(trifluoromethyl)phenyl)-1′,3′-dihydrospiro[cyclopropane-1,2′-inden]-1′-yl)carbamate], 55.3 nM corresponded to half-maximal inhibition (IC50).

Take `O=C(NC1c2ccc(-c3ccc(OC(F)(F)F)cc3)cc2CC12CC2)O[C@@H]1CN2CCC1CC2` (stereo partly drawn) [Example 392, (S)-quinuclidin-3-yl (5′-(4-(trifluoromethoxy)phenyl)-1′,3′-dihydrospiro[cyclopropane-1,2′-inden]-1′-yl)carbamate]: the IC50 came to 41.9 nM. Still for that read-out and setting: then `O=C(NC1c2ccc(-c3cccc(Cl)c3)cc2CC12CC2)O[C@@H]1CN2CCC1CC2` (stereo partly drawn) [Example 393, (S)-quinuclidin-3-yl (5′-(3-chlorophenyl)-1′,3′-dihydrospiro[cyclopropane-1,2′-inden]-1′-yl)carbamate], with 54.9 nM; and `O=C(NC1c2ccc(-c3cccc(C(F)(F)F)c3)cc2CC12CC2)O[C@@H]1CN2CCC1CC2` (stereo partly drawn) [Example 394, (S)-quinuclidin-3-yl (5′-(3-(trifluoromethyl)phenyl)-1′,3′-dihydrospiro[cyclopropane-1,2′-inden]-1′-yl)carbamate], with 48.8 nM; and `COCCOc1ccc(-c2ccc3c(c2)CC2(CC2)C3NC(=O)O[C@@H]2CN3CCC2CC3)cc1` (stereo partly drawn) [Example 395, (S)-quinuclidin-3-yl (5′-(4-(2-methoxyethoxy)phenyl)-1′,3′-dihydrospiro[cyclopropane-1,2′-inden]-1′-yl)carbamate], with 30.9 nM. Still for that read-out and setting: then `COCCOc1cccc(-c2ccc3c(c2)CC2(CC2)C3NC(=O)O[C@@H]2CN3CCC2CC3)c1` (stereo partly drawn) [Example 396, (S)-quinuclidin-3-yl (5′-(3-(2-methoxyethoxy)phenyl)-1′,3′-dihydrospiro[cyclopropane-1,2′-inden]-1′-yl)carbamate], with 39.6 nM. Compound `COCOc1ccc(-c2ccc3c(c2)CC2(CC2)C3NC(=O)O[C@@H]2CN3CCC2CC3)cc1` (stereo partly drawn) [Example 397, (S)-quinuclidin-3-yl (5′-(4-(methoxymethoxy)phenyl)-1′,3′-dihydrospiro[cyclopropane-1,2′-inden]-1′-yl)carbamate] came in with an IC50 of 17.4 nM. In turn, `COCOc1cccc(-c2ccc3c(c2)CC2(CC2)C3NC(=O)O[C@@H]2CN3CCC2CC3)c1` (stereo partly drawn) [Example 398, (S)-quinuclidin-3-yl (5′-(3-(methoxymethoxy)phenyl)-1′,3′-dihydrospiro[cyclopropane-1,2′-inden]-1′-yl)carbamate] showed an IC50 of 36.6 nM. In the case of `CC1(C)CC(NC(=O)O[C@@H]2CN3CCC2CC3)c2ccc(-c3cccc(Cl)c3)cc21` (stereo partly drawn) [Example 399, (S)-quinuclidin-3-yl (5-(3-chlorophenyl)-3,3-dimethyl-2,3-dihydro-1H-inden-1-yl)carbamate], the IC50 came to 43.6 nM. Still for that read-out and setting: next, `CC1(C)CC(NC(=O)O[C@@H]2CN3CCC2CC3)c2ccc(-c3ccccc3Cl)cc21` (stereo partly drawn) [Example 400, (S)-quinuclidin-3-yl (5-(2-chlorophenyl)-3,3-dimethyl-2,3-dihydro-1H-inden-1-yl)carbamate]: 108 nM; `CC1(C)CC(NC(=O)O[C@@H]2CN3CCC2CC3)c2ccc(-c3cccc(C(F)(F)F)c3)cc21` (stereo partly drawn) [Example 401, (S)-quinuclidin-3-yl (3,3-dimethyl-5-(3-(trifluoromethyl)phenyl)-2,3-dihydro-1H-inden-1-yl)carbamate]: 15.1 nM; `CC1(C)CC(NC(=O)O[C@@H]2CN3CCC2CC3)c2ccc(-c3cccc(OC(F)(F)F)c3)cc21` (stereo partly drawn) [Example 402, (S)-quinuclidin-3-yl (3,3-dimethyl-5-(3-(trifluoromethoxy)phenyl)-2,3-dihydro-1H-inden-1-yl)carbamate]: 19.5 nM. As for `CC1(C)CC(NC(=O)O[C@@H]2CN3CCC2CC3)c2ccc(-c3ccccc3OC(F)(F)F)cc21` (stereo partly drawn) [Example 403, (S)-quinuclidin-3-yl (3,3-dimethyl-5-(2-(trifluoromethoxy)phenyl)-2,3-dihydro-1H-inden-1-yl)carbamate], the IC50 was determined as 85.3 nM. The same measure, in the same setting: next, `O=C(NC1COc2cc(-c3cccc(C(F)(F)F)c3)ccc21)O[C@@H]1CN2CCC1CC2` (stereo partly drawn) [Example 404, (S)-quinuclidin-3-yl (6-(3-(trifluoromethyl)phenyl)-2,3-dihydrobenzofuran-3-yl)carbamate]: 25.9 nM. Same read-out and setting: next, `O=C(NC1COc2cc(-c3cccc(OC(F)(F)F)c3)ccc21)O[C@@H]1CN2CCC1CC2` (stereo partly drawn) [Example 405, (S)-quinuclidin-3-yl (6-(3-(trifluoromethoxy)phenyl)-2,3-dihydrobenzofuran-3-yl)carbamate]: 44.7 nM. Compound `CC1(C)Oc2ccc(-c3cccc(F)c3)cc2C1NC(=O)O[C@@H]1CN2CCC1CC2` (stereo partly drawn) [Example 406, (S)-quinuclidin-3-yl (5-(3-fluorophenyl)-2,2-dimethyl-2,3-dihydrobenzofuran-3-yl)carbamate] gave an IC50 of 120 nM. Same read-out and setting: then `CC1(C)Oc2cc(-c3cccc(F)c3)ccc2C1NC(=O)O[C@@H]1CN2CCC1CC2` (stereo partly drawn) [Example 407, (S)-quinuclidin-3-yl (6-(3-fluorophenyl)-2,2-dimethyl-2,3-dihydrobenzofuran-3-yl)carbamate], with 44.4 nM; and `CC1(C)Oc2cc(-c3cccc(Cl)c3)ccc2C1NC(=O)O[C@@H]1CN2CCC1CC2` (stereo partly drawn) [Example 408, (S)-quinuclidin-3-yl (6-(3-chlorophenyl)-2,2-dimethyl-2,3-dihydrobenzofuran-3-yl)carbamate], with 15.8 nM; and `CC1(C)Oc2cc(-c3cccc(C(F)(F)F)c3)ccc2C1NC(=O)O[C@@H]1CN2CCC1CC2` (stereo partly drawn) [Example 409, (S)-quinuclidin-3-yl (2,2-dimethyl-6-(3-(trifluoromethyl)phenyl)-2,3-dihydrobenzofuran-3-yl)carbamate], with 14.9 nM. Same read-out and setting: next, `CC1(C)Oc2cc(-c3cccc(OC(F)(F)F)c3)ccc2C1NC(=O)O[C@@H]1CN2CCC1CC2` (stereo partly drawn) [Example 410, (S)-quinuclidin-3-yl (2,2-dimethyl-6-(3-(trifluoromethoxy)phenyl)-2,3-dihydrobenzofuran-3-yl)carbamate]: 13 nM.

The same test, now with this note: read-out: IC50.
On to “(S)-quinuclidin-3-yl (6-(3-(2-methoxyethoxy)phenyl)-2,2-dimethyl-2,3-dihydrobenzofuran-3-yl)carbamate [Example 411]”, for which the IC50 was determined as 79.3 nM.

Source of the values: patent US12522602B2, “Derivatives having 2,3-dihydro-1H-indene or 2,3-dihydrobenzofuran moiety or pharmaceutically acceptable salt thereof and pharmaceutical compositions comprising the same” (YUHAN CORPORATION, priority 2019, dated 2026).
